Test results as given in patent US20260116867A1, “PROTEOLYSIS TARGETING CHIMERAS FOR HUMAN PREGNANE X RECEPTOR AND FOR DEGRADATION OF GSPT1” (ST. JUDE CHILDREN'S RESEARCH HOSPITAL, priority 2022, published 2026).

What was measured:
PXR [1] = target: T1, PXR (Homo sapiens, UniProt O75469); experiment: Western blot of endogenous 3xFLAG-PXR protein in SNU—C4 3xFLAG-PXR KI cells; type: cell-based; design: To assess SJPYT-195 activity against endogenous PXR, CRISPR-Cas9 was used; endogenous in cells; conditions: western blot, SNU—C4 3xFLAG-PXR KI cells
T1 sequence (O75469 1-434): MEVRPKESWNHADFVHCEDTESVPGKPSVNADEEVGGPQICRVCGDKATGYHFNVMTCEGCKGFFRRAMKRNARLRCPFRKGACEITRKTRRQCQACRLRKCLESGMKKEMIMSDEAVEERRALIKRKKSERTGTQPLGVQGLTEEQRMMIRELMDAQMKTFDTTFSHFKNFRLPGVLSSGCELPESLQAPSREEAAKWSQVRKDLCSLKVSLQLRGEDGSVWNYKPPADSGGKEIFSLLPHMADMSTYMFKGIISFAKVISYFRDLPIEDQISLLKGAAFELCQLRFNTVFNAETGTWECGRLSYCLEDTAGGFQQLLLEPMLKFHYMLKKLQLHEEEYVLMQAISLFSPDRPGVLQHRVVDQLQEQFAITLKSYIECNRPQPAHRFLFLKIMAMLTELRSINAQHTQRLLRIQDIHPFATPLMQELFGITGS
Experimental: The following day, DMSO or compounds were added to result in 0.5% DMSO and the indicated compound concentrations, and cells were incubated for the indicated time points. Cells were lysed and subjected to western blotting as above using antibodies against FLAG (Sigma-Aldrich, cat. #F3165, 1:2,000 dilution), GSPT1 (Abcam, cat. #ab126090, 1:4,000 dilution), and R-Actin (Cell Signaling Technology, cat. #4967, 1:2,000 dilution).

[2] = system: SNU—C4 3xFLAG-PXR KI cells; experiment: Cytotoxicity assay (CellTiter-Glo, 72 h); type: cell-based, human; conditions: SNU—C4 3xFLAG-PXR KI cells, 72 h, FIG. 7A; read-out: half maximal cytotoxic concentration (CC50)
Experimental: (§1) The indicated cells (2.5×10^3/well in 40 μL RPMI with 10% FBS) were plated in the 384-well plates, resulting in 0.5% DMSO and the indicated concentrations of chemicals. After 72 h compound treatment, the CellTiter-Glo Luminescent Cell Viability Assay (Promega) and an EnVision microplate reader were used to assess cytotoxicity. Wells containing DMSO alone or 10 μM staurosporine served as negative and positive controls, respectively. The percent cell viability for each well was calculated using equation 1: […]

[3] = system: SNU—C4 3xFLAG-PXR KI cell lines stably expressing HA-tagged GSPT1^G575N; experiment: Cytotoxicity assay in cells overexpressing degradation-resistant GSPT1 mutant; type: cell-based, human; conditions: FIG. 7B-C
Experimental: Complete information for all plasmids is included in Table 1 below. […] Lentiviruses for pCDH-GSPT1 or pCDH-GSPT1^G575N were generated in 293T cells using psPAX2 and pMD2.G packaging vectors. The packaging vectors were gifts from Dr. Didier Trono (Addgene plasmid #12259 and 12260).
as §1

PXR [4] = target: T1, PXR; experiment: cell-based hPXR agonistic assay
PXR [5] = target: T1, PXR; experiment: cell-based hPXR antagonistic assay
PXR [6] = target: T1, PXR; experiment: hPXR binding assay
HiBiT-FKBP12^F36V-PXR = target: T2, HiBiT-FKBP12^F36V-PXR (Homo sapiens, UniProt O75469+P62942, F37V); experiment: HiBiT assay for degradation of overexpressed protein in HepG2 cells; type: cell-based; conditions: FIG. 2C
T2 construct: expressed in transfected cells; host or cells: HepG2 cells (transient, Lipofectamine 3000)
Experimental: HepG2 cells (5×10^6 cells/dish) were plated in tissue culture-treated 10 cm dishes in 10 mL EMEM with 10% FBS. The next day, cells were transfected with 5 μg pcDNA3-HiBiT-FKBP^F36V-2xHA-PXR and either 5 μg pcDNA3 vector or 5 μg pcDNA3-HA-CRBN using Lipofectamine 3000 (Thermo Fisher Scientific). After 24 h, cells were trypsinized, resuspended in assay media, and plated in white tissue culture-treated 384-well plates (1.5×10^4 cells/well in 25 μL medium). […] The plates were incubated for 24 h, and the Nano-Glo HiBiT Lytic Detection System (Promega) and an EnVision microplate reader were used to measure HiBiT signal. Results are reported as fold change relative to DMSO control cells.
To establish a method for discovery of PXR degraders in the absence of a known PXR-degrading control, the degradation tag (dTAG) system was used. With this method, a protein of interest (PXR) is fused to a cytosolic prolyl isomerase, FKBP12, with Phe36 mutated to Val (FKBP12^F36V) (FIG. 2A). A PROTAC molecule, dTAG-13 (FIG. 2B), is then used to induce degradation of the fusion protein through recruitment of the CUL4-RBX1-DDB1-CRBN (CRL4^CRBN) E3 ubiquitin ligase, without affecting the cellular FKBP12 protein. An HA tag was added for western blot detection, and a HiBiT tag was fused to the N-terminus to allow high-throughput plate-based quantification of HiBiT-FKBP12^F36V-PXR protein levels (FIG. 2A). […] This was also observed when the HA tag was detected by western blot (FIG. 2D). The HiBiT detection was more sensitive to protein level changes than western blot, and, importantly, overexpression of CRBN was required to achieve dTAG-13-mediated degradation of the overexpressed HiBiT-FKBP12^F36V-PXR protein.

T2 sequence (P62942+O75469 fused P62942:F37V): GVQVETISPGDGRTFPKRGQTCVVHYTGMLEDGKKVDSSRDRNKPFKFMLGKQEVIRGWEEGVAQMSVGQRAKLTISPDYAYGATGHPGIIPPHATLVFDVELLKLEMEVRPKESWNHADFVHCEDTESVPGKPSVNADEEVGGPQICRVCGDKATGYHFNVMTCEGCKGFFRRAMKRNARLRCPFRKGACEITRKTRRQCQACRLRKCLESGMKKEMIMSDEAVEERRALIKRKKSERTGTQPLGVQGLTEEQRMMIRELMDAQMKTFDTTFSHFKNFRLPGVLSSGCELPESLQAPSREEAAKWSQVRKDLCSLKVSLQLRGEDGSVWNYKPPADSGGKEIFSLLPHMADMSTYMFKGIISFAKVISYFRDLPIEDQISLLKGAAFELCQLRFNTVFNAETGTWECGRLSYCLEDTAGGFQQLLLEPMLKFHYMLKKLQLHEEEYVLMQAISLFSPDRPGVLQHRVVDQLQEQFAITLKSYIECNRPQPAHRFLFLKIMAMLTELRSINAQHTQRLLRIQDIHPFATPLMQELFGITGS
T2 sequence (Q96SW2 whole entry partner): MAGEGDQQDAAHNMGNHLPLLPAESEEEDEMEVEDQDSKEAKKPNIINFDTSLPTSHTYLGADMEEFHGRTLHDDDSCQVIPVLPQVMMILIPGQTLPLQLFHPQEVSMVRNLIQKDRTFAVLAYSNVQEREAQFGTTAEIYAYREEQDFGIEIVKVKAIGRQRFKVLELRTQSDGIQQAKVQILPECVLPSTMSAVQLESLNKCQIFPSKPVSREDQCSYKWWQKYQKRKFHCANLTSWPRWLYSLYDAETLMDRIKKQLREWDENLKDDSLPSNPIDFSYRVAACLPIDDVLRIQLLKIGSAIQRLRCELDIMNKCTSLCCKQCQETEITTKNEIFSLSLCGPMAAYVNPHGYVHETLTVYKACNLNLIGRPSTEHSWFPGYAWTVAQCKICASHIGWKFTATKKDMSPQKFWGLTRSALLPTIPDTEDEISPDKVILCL

`Cc1ccc(NC(=O)NCc2ccc3c(c2)CN(C2CCC(=O)NC2=O)C3=O)cc1Cl` (centres unmarked) [CC-885, reference compound] was tested, and the “PXR protein level (in words)” value (PXR [1]) was “also reduced PXR protein”, the CC50 [2] was 0.0033 ± 0.0003 µM and the “cytotoxicity in cells overexpressing GSPT1^G575N” value [3] was “partially resistant”.

For `COc1ccc(OC)c(-n2nnc(C(=O)Nc3cc(C(C)(C)C)ccc3OCCCCOc3cccc4c3C(=O)N(C3CCC(=O)NC3=O)C4=O)c2C)c1` (centres unmarked) [Compound M12, N-(5-(tert-butyl)-2-(4-((2-(2,6-dioxopiperidin-3-yl)-1,3-dioxoisoindolin-4-yl)oxy)butoxy)phenyl)-1-(2,5-dimethoxyphenyl)-5-methyl-1H-1,2,3-triazole-4-carboxamide], the “Agonist (% activation at 10 μM)” value (PXR [4]; 10 μM, rifampicin at 10 μM as 100% activation, DMSO (0.3%) as 0%) was “(33 ± 1)%”, the EC50 (PXR [4]; NA = no value within concentration range tested (highest 30 μM), read-out: Agonist (EC50/μM)) was 0.27 ± 0.078 µM and the inhibition at 10 µM (PXR [5]; read-out: Antagonist (% inhibition at 10 μM)) was 28%. The IC50 (PXR [5]; read-out: Antagonist (IC50/μM)) was 0.67 ± 0.26 µM, the IC50 (PXR [6]) was 0.032 ± 0.002 µM and the inhibition at 10 µM (PXR [6]; read-out: Binding (% inhibition at 10 μM)) was 56%.

For `CC[C@H](C(=O)N1CCCC[C@H]1C(=O)O[C@H](CCc1ccc(OC)c(OC)c1)c1ccccc1OCC(=O)NCCCCCCOc1cccc2c1C(=O)N(C1CCC(=O)NC1=O)C2=O)c1cc(OC)c(OC)c(OC)c1` (some centres unmarked) [dTAG-13], the “HiBiT signal, CRBN co-overexpressed” value (HiBiT-FKBP12^F36V-PXR; HepG2 overexpressing HiBiT-FKBP12^F36V-PXR and CRBN) was “potently reduced HiBiT signal” and the “HiBiT signal, without CRBN co-overexpression” value (HiBiT-FKBP12^F36V-PXR; HepG2 overexpressing HiBiT-FKBP12^F36V-PXR) was “only a slight reduction in HiBiT signal”.
